Data set [1] can be described thus: Acceleration test (40° C., relative humidity 75%). Format: physicochemical. The method, then:
Samples were sealed with polyethylene plastic bags, placed in the thermostatic drying chamber at 40±2° C. with relative humidity of 75±5% for 3 months. Then the samples were taken at the end of the first, second and third month respectively for determination, compared with the result of day 0, results were listed in the table below: […]

The nature of data set [2]: High temperature test (60° C.). Format: physicochemical. Conditions: sealed ampoules. How it is done: Samples were sealed in clean glass ampoules and put in 60° C. thermostatic drying chamber, then they were taken on the fifth and tenth day respectively for determination, compared with the result of day 0, results were listed in the table below:
Samples were sealed in clean glass ampoules and put in 60° C. thermostatic drying chamber, then they were taken on the fifth and tenth day respectively for determination, compared with the result of day 0, results were listed in the table below

A short description of data set [3]: High humidity test (room temperature, relative humidity 75±5%). Format: physicochemical. Conditions: 25° C. How it is done:
Samples were evenly spread out and placed in open culture dishes, wherein the thickness thereof was less than 5 mm, put in a thermostatic drying chamber at room temperature (25° C.) with relative humidity of 75±5%. Then the samples were taken on the fifth and tenth day respectively for determination, compared with the result of day 0, results were listed in the table below

Data set [4] in a line: Light exposure test (4500±500 Lx). Format: physicochemical. Conditions: light 4500±500 Lx. The source says: Samples were evenly spread out and placed in open culture dishes and the thickness thereof was less than 5 mm, then distances were adjusted until the illumination intensity was 4500±500 Lx, samples were taken on the fifth and tenth day respectively for determination, compared with the result of day 0, results were listed in the table below: […]

Data set [5] can be described thus: Stability analysis, overall conclusion in words. The class given is physicochemical. Conditions: from light, high temperature, high humidity and acceleration tests.
Data set [6] is classed as physicochemical. Conditions: for amount of solvent (ml), 0.1N HCl / amount of solvent (ml), 0.1N NaOH / amount of solvent (ml), anhydrous ethanol / amount of solvent (ml), methanol / amount of solvent (ml), water: to dissolve 1 g of sample.
The test system of a further data set is Duck Hepatitis B Virus. Description: Anti-viral (anti-HBV) test in vivo, DHBV-DNA level by PCR. Details: species or system GaoYou pockmark ducks. Conditions: ducks, once a day, day 0 level as base line of 100. How it is done: Two-month old pockmark ducks vertically infected with Duck Hepatitis B Virus were selected as animal models to conduct anti-HBV test in vivo, the efficacy was investigated. 80 GaoYou pockmark ducks were divided randomly into. 8 groups, 10 ducks per groups, three groups were given TD fumarate at the dosage of 5, 15, 45 mg/kg once a day respectively, other three groups were given Tenofovir Disoproxil Fumarate at the dosage of 5, 15, 45 mg/kg once a day respectively, other one group was given Adefovir Dipivoxil at the dosage of 15 mg/kg once a day and the remaining group was blank control group. All the groups were administered for 28 days, and blood samples were taken every 7 days to determine the inhibitory effect to the DHBV-DNA level by PCR, inhibition rate was listed in the following table.

The values that follow come from patent US8507463B2, “Nucleotide analogue prodrug and the preparation thereof” (Jiangsu Chia Tai Tianqing Pharmaceutical Co., Ltd., priority 2005, dated 2013).

Counter-ions that a name gives are not always drawn. A value given as a limit tells only on which side of the number the result lay.

Turning to `C[C@H](Cn1cnc2c(N)ncnc21)OCP(=O)(OCOC(=O)C(C)(C)C)OCOC(=O)C(C)(C)C` [TD crystalline form B, 9-[2-(R)-[bis[pivaloyloxymethoxy]-phosphinylmethoxy]propyl]adenine], the “content (%)” value stood at 95.8% in data set [1] (end of month 1); 92.7% in data set [1] (end of month 2); 88.7% in data set [1] (end of month 3); 98.8% in data set [2] (day 0); 97.7% in data set [2] (day 5); 97.0% in data set [2] (day 10). The “content (%)” value was found to be 99.6% in data set [3] (day 0); 98.2% in data set [3] (day 5); 96.9% in data set [3] (day 10); 99.2% in data set [4] (day 0); 98.8% in data set [4] (day 5); 98.7% in data set [4] (day 10). In addition, the “Weight gain after moisture absorption (%)” value (“Weight gain … (%)” below) in data set [3] (day 5) is reported as 0%; in data set [3] (day 10), 0.2%. Besides, the “stability, overall conclusion in words” value in data set [5] is recorded as “good stabilities”. Further, in data set [6], the “solubility conclusion, 0.1N HCl” value is “soluble”. Further, the “solubility conclusion, 0.1N NaOH” value in data set [6] is on record as “slightly”. For the same molecule, in data set [6], the “solubility conclusion, anhydrous ethanol” value is reported as “freely soluble”. In data set [6], the “solubility conclusion, methanol” value is “freely soluble”. In data set [6], the “amount of solvent (ml), 0.1N HCl” value is 27.3 mL. In addition, the “amount of solvent (ml), 0.1N NaOH” value in data set [6] is 790 mL. For the same molecule, the “amount of solvent (ml), anhydrous ethanol” value (“amount … anhydrous ethanol” for short) in data set [6] worked out at 6.0 mL. The “amount of solvent (ml), methanol” value in data set [6] worked out at 1.5 mL. Also, in data set [6] (water), the “amount of solvent (ml), water” value came out at 840 mL. In data set [6] (water), the “solubility conclusion, water” value is listed as “slightly”.

For `CC(Cn1cnc2c(N)ncnc21)OCP(=O)(OCOC(=O)C(C)(C)C)OCOC(=O)C(C)(C)C.CC1(C)CCC2(C(=O)O)CCC3(C)C(=CCC4C5(C)CCC(O)C(C)(C)C5CCC43C)C2C1` (stereo not shown) [TD oleanolate], the “content (%)” value in data set [1] (end of month 1) worked out at 98.7%; in data set [1] (end of month 2), 98.5%; in data set [1] (end of month 3), 98.4%; in data set [1] (month 0) it was 99.2%; in data set [2] (day 0), 99.0%; in data set [2] (day 5), 98.9%. Besides, the “content (%)” value in data set [2] (day 10) is 98.6%; in data set [3] (day 0), 99.2%; in data set [3] (day 5) it was 99.1%; in data set [3] (day 10), 99.1%; in data set [4] (day 0) it was 99.2%; in data set [4] (day 5), 99.0%. Moreover, in data set [4] (day 10), the “content (%)” value was determined as 99.3%. In addition, the “Weight gain … (%)” value in data set [3] (day 5) and in data set [3] (day 10) was 0% throughout. For the same molecule, the “solubility conclusion, 0.1N HCl” value in data set [6] is “not”. The “solubility conclusion, 0.1N NaOH” value in data set [6] is “not soluble”. Further, the “solubility conclusion, anhydrous ethanol” value in data set [6] is listed as “slightly”. Also, the “solubility conclusion, methanol” value in data set [6] is reported as “slightly”. In addition, in data set [6], the “amount of solvent (ml), 0.1N HCl” value is above 1000 mL. Moreover, the “amount of solvent (ml), 0.1N NaOH” value in data set [6] was above 1000 mL. In data set [6], the “amount … anhydrous ethanol” value was found to be 650 mL. Also, the “amount of solvent (ml), methanol” value in data set [6] worked out at 760 mL. Also, the “amount of solvent (ml), water” value in data set [6] (water) was above 1000 mL. For the same molecule, in data set [6] (water), the “solubility conclusion, water” value is listed as “not soluble”.

With `CC(C)OC(=O)OCOP(=O)(CO[C@H](C)Cn1cnc2c(N)ncnc21)OCOC(=O)OC(C)C` [Tenofovir Disoproxil Fumarate], in the data set with Duck Hepatitis B Virus (5 mg/ml group), the “DHBV-DNA level, First week” value was determined as 90 ± 9; the “DHBV-DNA level, Fourth week” value is listed as 50 ± 7; the “DHBV-DNA level, Second week” value stood at 79 ± 5; the “DHBV-DNA level, Third week” value is 65 ± 6. Also, in the data set with Duck Hepatitis B Virus (15 mg/ml group), the “DHBV-DNA level, First week” value amounted to 83 ± 6; the “DHBV-DNA level, Fourth week” value was found to be 37 ± 8; the “DHBV-DNA level, Second week” value is on record as 66 ± 7; the “DHBV-DNA level, Third week” value amounted to 53 ± 5. In addition, in the data set with Duck Hepatitis B Virus (45 mg/ml group), the “DHBV-DNA level, First week” value is on record as 75 ± 9; the “DHBV-DNA level, Fourth week” value worked out at 25 ± 7; the “DHBV-DNA level, Second week” value came out at 43 ± 8; the “DHBV-DNA level, Third week” value was determined as 35 ± 6.

For `C[C@H](Cn1cnc2c(N)ncnc21)OCP(=O)(OCOC(=O)C(C)(C)C)OCOC(=O)C(C)(C)C` [amorphous TD, 9-[2-(R)-[bis[pivaloyloxymethoxy]-phosphinylmethoxy]propyl]adenine], the “content (%)” value was 92.3% in data set [1] (end of month 1); 88.9% in data set [1] (end of month 2); 82.8% in data set [1] (end of month 3); 99.0% in data set [1] (month 0); 98.5% in data set [2] (day 0); 97.5% in data set [2] (day 5). The “content (%)” value stood at 97.1% in data set [2] (day 10); 99.0% in data set [3] (day 0); 97.9% in data set [3] (day 5); 95.8% in data set [3] (day 10); 98.5% in data set [4] (day 0); 98.3% in data set [4] (day 5). For the same molecule, the “content (%)” value in data set [4] (day 10) is 98.1%. Also, the “Weight gain … (%)” value in data set [3] (day 5) came to 1.0%; in data set [3] (day 10), 2.3%. In data set [6], the “solubility conclusion, 0.1N HCl” value is reported as “soluble”. Besides, the “solubility conclusion, 0.1N NaOH” value in data set [6] was “slightly”. Further, the “solubility conclusion, anhydrous ethanol” value in data set [6] is listed as “freely soluble”. For the same molecule, the “solubility conclusion, methanol” value in data set [6] was “freely soluble”. For the same molecule, the “amount of solvent (ml), 0.1N HCl” value in data set [6] was determined as 25.2 mL. For the same molecule, the “amount of solvent (ml), 0.1N NaOH” value in data set [6] came to 613 mL. The “amount … anhydrous ethanol” value in data set [6] was found to be 5.6 mL. Besides, the “amount of solvent (ml), methanol” value in data set [6] is 2.0 mL. The “amount of solvent (ml), water” value in data set [6] (water) was 380 mL. Moreover, the “solubility conclusion, water” value in data set [6] (water) is given as “soluble”. In data set [6] (water), the “water solubility compared with other solid TD forms, in words” value is recorded as “better solubility than crystalline TD in water”.
